Measured values from ChEMBL document CHEMBL1671627, “Increasing trends in antimicrobial resistance among clinically important anaerobes and Bacteroides fragilis isolates causing nosocomial infections: emerging resistance to carbapenems” (2008).
≈ marks a conversion by molar mass, not a printed value.

Tests used:
[1] = tested on: Bacteroides thetaiotaomicron; test: Antibacterial activity against beta-lactamase producing Bacteroides thetaiotaomicron by CLSI agar dilution method; assay type: functional
Prevotella bivia [2] = test: Antibacterial activity against Prevotella bivia assessed as susceptible isolates by CLSI agar dilution method; assay type: functional
Prevotella buccae [3] = test: Antibacterial activity against Prevotella buccae by CLSI agar dilution method; assay type: functional; conditions: Segatella buccae
Prevotella buccae [4] = test: Antibacterial activity against Prevotella buccae assessed as resistant isolates by CLSI agar dilution method; assay type: functional, Segatella buccae
[5] = tested on: Peptostreptococcus anaerobius; test: Antibacterial activity against beta-lactamase producing Peptostreptococcus anaerobius assessed as resistant isolates by CLSI agar dilution method; assay type: functional
[6] = tested on: Prevotella melaninogenica; test: Antibacterial activity against Prevotella melaninogenica assessed as resistant isolates by CLSI agar dilution method; assay type: functional
Clostridium septicum [7] = test: Antibacterial activity against beta-lactamase producing Clostridium septicum by CLSI agar dilution method; assay type: functional
[8] = tested on: Fusobacterium necrophorum; test: Antibacterial activity against Fusobacterium necrophorum assessed as resistant isolates by CLSI agar dilution method; assay type: functional
Fusobacterium nucleatum [9] = test: Antibacterial activity against Fusobacterium nucleatum by CLSI agar dilution method; assay type: functional
Clostridium tertium [10] = test: Antibacterial activity against beta-lactamase producing Clostridium tertium assessed as susceptible isolates by CLSI agar dilution method; assay type: functional
[11] = tested on: Peptostreptococcus anaerobius; test: Antibacterial activity against beta-lactamase producing Peptostreptococcus anaerobius by CLSI agar dilution method; assay type: functional
Clostridium tertium [12] = test: Antibacterial activity against beta-lactamase producing Clostridium tertium by CLSI agar dilution method; assay type: functional
[13] = tested on: Bacteroides thetaiotaomicron; test: Antibacterial activity against beta-lactamase producing Bacteroides thetaiotaomicron assessed as susceptible isolates by CLSI agar dilution method; assay type: functional
Fusobacterium varium [14] = test: Antibacterial activity against Fusobacterium varium assessed as resistant isolates by CLSI agar dilution method; assay type: functional
Fusobacterium varium [15] = test: Antibacterial activity against Fusobacterium varium assessed as susceptible isolates by CLSI agar dilution method; assay type: functional
Bacteroides caccae [16] = test: Antibacterial activity against beta-lactamase producing Bacteroides caccae assessed as resistant isolates by CLSI agar dilution method; assay type: functional
Clostridium perfringens = test: microbe, parasite or virus in culture; assay type: functional
Parvimonas micra [17] = test: Antibacterial activity against beta-lactamase producing Micromonas micros by CLSI agar dilution method; assay type: functional
Clostridium septicum [18] = test: Antibacterial activity against beta-lactamase producing Clostridium septicum assessed as resistant isolates by CLSI agar dilution method; assay type: functional
Prevotella intermedia [19] = test: Antibacterial activity against Prevotella intermedia by CLSI agar dilution method; assay type: functional
Bacteroides fragilis [20] = test: Antibacterial activity against Bacteroides fragilis by CLSI agar dilution method; assay type: functional
Prevotella intermedia [21] = test: Antibacterial activity against Prevotella intermedia assessed as susceptible isolates by CLSI agar dilution method; assay type: functional
Finegoldia magna [22] = test: Antibacterial activity against beta-lactamase producing Finegoldia magna assessed as resistant isolates by CLSI agar dilution method; assay type: functional
[23] = tested on: Peptostreptococcus anaerobius; test: Antibacterial activity against beta-lactamase producing Peptostreptococcus anaerobius assessed as susceptible isolates by CLSI agar dilution method; assay type: functional
Parvimonas micra [24] = test: Antibacterial activity against beta-lactamase producing Micromonas micros assessed as susceptible isolates by CLSI agar dilution method; assay type: functional
Bacteroides uniformis [25] = test: Antibacterial activity against beta-lactamase producing Bacteroides uniformis by CLSI agar dilution method; assay type: functional
Prevotella buccae [26] = test: Antibacterial activity against Prevotella buccae assessed as susceptible isolates by CLSI agar dilution method; assay type: functional, Segatella buccae
Prevotella bivia [27] = test: Antibacterial activity against Prevotella bivia by CLSI agar dilution method; assay type: functional
Phocaeicola vulgatus [28] = test: Antibacterial activity against beta-lactamase producing Bacteroides vulgatus assessed as susceptible isolates by CLSI agar dilution method; assay type: functional
Prevotella bivia [29] = test: Antibacterial activity against Prevotella bivia assessed as resistant isolates by CLSI agar dilution method; assay type: functional
[30] = tested on: Fusobacterium necrophorum; test: Antibacterial activity against Fusobacterium necrophorum by CLSI agar dilution method; assay type: functional
Bacteroides uniformis [31] = test: Antibacterial activity against beta-lactamase producing Bacteroides uniformis assessed as susceptible isolates by CLSI agar dilution method; assay type: functional
Finegoldia magna [32] = test: Antibacterial activity against beta-lactamase producing Finegoldia magna by CLSI agar dilution method; assay type: functional
[33] = tested on: Clostridium paraputrificum; test: Antibacterial activity against beta-lactamase producing Clostridium paraputrificum assessed as resistant isolates by CLSI agar dilution method; assay type: functional
Fusobacterium nucleatum [34] = test: Antibacterial activity against Fusobacterium nucleatum assessed as resistant isolates by CLSI agar dilution method; assay type: functional
Phocaeicola vulgatus [35] = test: Antibacterial activity against beta-lactamase producing Bacteroides vulgatus by CLSI agar dilution method; assay type: functional
Parvimonas micra [36] = test: Antibacterial activity against beta-lactamase producing Micromonas micros assessed as resistant isolates by CLSI agar dilution method; assay type: functional
Veillonella parvula = test: Antibacterial activity against Veillonella parvula by CLSI agar dilution method; assay type: functional
Fusobacterium mortiferum [37] = test: Antibacterial activity against Fusobacterium mortiferum assessed as resistant isolates by CLSI agar dilution method; assay type: functional
[38] = tested on: Clostridium paraputrificum; test: Antibacterial activity against beta-lactamase producing Clostridium paraputrificum by CLSI agar dilution method; assay type: functional
[39] = tested on: Prevotella melaninogenica; test: Antibacterial activity against Prevotella melaninogenica by CLSI agar dilution method; assay type: functional
Finegoldia magna [40] = test: Antibacterial activity against beta-lactamase producing Finegoldia magna assessed as susceptible isolates by CLSI agar dilution method; assay type: functional
Bacteroides caccae [41] = test: Antibacterial activity against beta-lactamase producing Bacteroides caccae assessed as susceptible isolates by CLSI agar dilution method; assay type: functional
[42] = tested on: Prevotella melaninogenica; test: Antibacterial activity against Prevotella melaninogenica assessed as susceptible isolates by CLSI agar dilution method; assay type: functional
Bacteroides uniformis [43] = test: Antibacterial activity against beta-lactamase producing Bacteroides uniformis assessed as resistant isolates by CLSI agar dilution method; assay type: functional
Phocaeicola vulgatus [44] = test: Antibacterial activity against beta-lactamase producing Bacteroides vulgatus assessed as resistant isolates by CLSI agar dilution method; assay type: functional
[45] = tested on: Clostridium paraputrificum; test: Antibacterial activity against beta-lactamase producing Clostridium paraputrificum assessed as susceptible isolates by CLSI agar dilution method; assay type: functional
Fusobacterium mortiferum [46] = test: Antibacterial activity against Fusobacterium mortiferum by CLSI agar dilution method; assay type: functional
Bacteroides caccae [47] = test: Antibacterial activity against beta-lactamase producing Bacteroides caccae by CLSI agar dilution method; assay type: functional
[48] = tested on: Fusobacterium necrophorum; test: Antibacterial activity against Fusobacterium necrophorum assessed as susceptible isolates by CLSI agar dilution method; assay type: functional
Bacteroides fragilis [49] = test: Antibacterial activity against Bacteroides fragilis assessed as resistant isolates by CLSI agar dilution method; assay type: functional
[50] = tested on: Peptoniphilus asaccharolyticus; test: Antibacterial activity against beta-lactamase producing Peptoniphilus asaccharolyticus assessed as susceptible isolates by CLSI agar dilution method; assay type: functional
Fusobacterium mortiferum [51] = test: Antibacterial activity against Fusobacterium mortiferum assessed as susceptible isolates by CLSI agar dilution method; assay type: functional
Clostridium tertium [52] = test: Antibacterial activity against beta-lactamase producing Clostridium tertium assessed as resistant isolates by CLSI agar dilution method; assay type: functional
Fusobacterium varium [53] = test: Antibacterial activity against Fusobacterium varium by CLSI agar dilution method; assay type: functional
[54] = tested on: Peptoniphilus asaccharolyticus; test: Antibacterial activity against beta-lactamase producing Peptoniphilus asaccharolyticus by CLSI agar dilution method; assay type: functional
[55] = tested on: Peptoniphilus asaccharolyticus; test: Antibacterial activity against beta-lactamase producing Peptoniphilus asaccharolyticus assessed as resistant isolates by CLSI agar dilution method; assay type: functional
Bacteroides fragilis [56] = test: Antibacterial activity against Bacteroides fragilis assessed as susceptible isolates by CLSI agar dilution method; assay type: functional
Prevotella intermedia [57] = test: Antibacterial activity against Prevotella intermedia assessed as resistant isolates by CLSI agar dilution method; assay type: functional
Fusobacterium nucleatum [58] = test: Antibacterial activity against Fusobacterium nucleatum assessed as susceptible isolates by CLSI agar dilution method; assay type: functional
Clostridium septicum [59] = test: Antibacterial activity against beta-lactamase producing Clostridium septicum assessed as susceptible isolates by CLSI agar dilution method; assay type: functional
[60] = tested on: Bacteroides thetaiotaomicron; test: Antibacterial activity against beta-lactamase producing Bacteroides thetaiotaomicron assessed as resistant isolates by CLSI agar dilution method; assay type: functional

C[C@@H](O)[C@H]1C(=O)N2C(C(=O)O)=C(SCCNC=N)C[C@H]12 [IMIPENEM ANHYDROUS]
MIC50 [1]: 0.5 µg/mL (≈ 1.67 µM)
MIC90 [1]: 4 µg/mL (≈ 13.4 µM)
Activity (Prevotella bivia [2]): 94%
MIC50 (Prevotella buccae [3]): 0.25 µg/mL (≈ 0.835 µM)
MIC90 (Prevotella buccae [3]): 0.5 µg/mL (≈ 1.67 µM)
Activity (Prevotella buccae [4]): 6%
Activity [5]: 0%
Activity [6]: 6%
MIC50 (Clostridium septicum [7]): 0.25 µg/mL (≈ 0.835 µM)
MIC90 (Clostridium septicum [7]): 8 µg/mL (≈ 26.7 µM)
Activity [8]: 4%
MIC (Fusobacterium nucleatum [9]): 0.01 µg/mL (≈ 0.0334 µM)
MIC50 (Fusobacterium nucleatum [9]): 0.5 µg/mL (≈ 1.67 µM)
MIC90 (Fusobacterium nucleatum [9]): 4 µg/mL (≈ 13.4 µM)
Activity (Clostridium tertium [10]): 85%
MIC50 [11]: 0.06 µg/mL (≈ 0.2 µM)
MIC90 [11]: 0.5 µg/mL (≈ 1.67 µM)
MIC50 (Clostridium tertium [12]): 0.25 µg/mL (≈ 0.835 µM)
MIC90 (Clostridium tertium [12]): 8 µg/mL (≈ 26.7 µM)
Activity [13]: 93%
Activity (Fusobacterium varium [14]): 4%
Activity (Fusobacterium varium [15]): 96%
Activity (Bacteroides caccae [16]): 4%
MIC50 (Clostridium perfringens): 0.25 µg/mL (≈ 0.835 µM)
MIC90 (Clostridium perfringens): 8 µg/mL (≈ 26.7 µM)
MIC50 (Parvimonas micra [17]): 0.06 µg/mL (≈ 0.2 µM)
MIC90 (Parvimonas micra [17]): 0.5 µg/mL (≈ 1.67 µM)
Activity (Clostridium septicum [18]): 4%
MIC50 (Prevotella intermedia [19]): 0.25 µg/mL (≈ 0.835 µM)
MIC90 (Prevotella intermedia [19]): 0.5 µg/mL (≈ 1.67 µM)
MIC50 (Bacteroides fragilis [20]): 0.5 µg/mL (≈ 1.67 µM)
MIC90 (Bacteroides fragilis [20]): 4 µg/mL (≈ 13.4 µM)
Activity (Prevotella intermedia [21]): 94%
Activity (Finegoldia magna [22]): 0%
Activity [23]: 100%
Activity (Parvimonas micra [24]): 100%
MIC50 (Bacteroides uniformis [25]): 1 µg/mL (≈ 3.34 µM)
MIC90 (Bacteroides uniformis [25]): 4 µg/mL (≈ 13.4 µM)
Activity (Prevotella buccae [26]): 94%
MIC50 (Prevotella bivia [27]): 0.25 µg/mL (≈ 0.835 µM)
MIC90 (Prevotella bivia [27]): 0.5 µg/mL (≈ 1.67 µM)
Activity (Phocaeicola vulgatus [28]): 96%
Activity (Prevotella bivia [29]): 6%
MIC [30]: 0.01 µg/mL (≈ 0.0334 µM)
MIC50 [30]: 0.5 µg/mL (≈ 1.67 µM)
MIC90 [30]: 4 µg/mL (≈ 13.4 µM)
Activity (Bacteroides uniformis [31]): 96%
MIC50 (Finegoldia magna [32]): 0.06 µg/mL (≈ 0.2 µM)
MIC90 (Finegoldia magna [32]): 0.5 µg/mL (≈ 1.67 µM)
Activity [33]: 4%
Activity (Fusobacterium nucleatum [34]): 4%
MIC50 (Phocaeicola vulgatus [35]): 1 µg/mL (≈ 3.34 µM)
MIC90 (Phocaeicola vulgatus [35]): 4 µg/mL (≈ 13.4 µM)
Activity (Parvimonas micra [36]): 0%
MIC (Veillonella parvula): 0.12 µg/mL (≈ 0.401 µM)
Activity (Fusobacterium mortiferum [37]): 4%
MIC50 [38]: 0.25 µg/mL (≈ 0.835 µM)
MIC90 [38]: 8 µg/mL (≈ 26.7 µM)
MIC50 [39]: 0.25 µg/mL (≈ 0.835 µM)
MIC90 [39]: 0.5 µg/mL (≈ 1.67 µM)
Activity (Finegoldia magna [40]): 100%
Activity (Bacteroides caccae [41]): 96%
Activity [42]: 94%
Activity (Bacteroides uniformis [43]): 4%
Activity (Phocaeicola vulgatus [44]): 4%
Activity [45]: 85%
MIC (Fusobacterium mortiferum [46]): 0.01 µg/mL (≈ 0.0334 µM)
MIC50 (Fusobacterium mortiferum [46]): 0.5 µg/mL (≈ 1.67 µM)
MIC90 (Fusobacterium mortiferum [46]): 4 µg/mL (≈ 13.4 µM)
MIC50 (Bacteroides caccae [47]): 1 µg/mL (≈ 3.34 µM)
MIC90 (Bacteroides caccae [47]): 4 µg/mL (≈ 13.4 µM)
Activity [48]: 96%
Activity (Bacteroides fragilis [49]): 3%
Activity [50]: 100%
Activity (Fusobacterium mortiferum [51]): 96%
Activity (Clostridium tertium [52]): 4%
MIC (Fusobacterium varium [53]): 0.01 µg/mL (≈ 0.0334 µM)
MIC50 (Fusobacterium varium [53]): 0.5 µg/mL (≈ 1.67 µM)
MIC90 (Fusobacterium varium [53]): 4 µg/mL (≈ 13.4 µM)
MIC50 [54]: 0.06 µg/mL (≈ 0.2 µM)
MIC90 [54]: 0.5 µg/mL (≈ 1.67 µM)
Activity [55]: 0%
Activity (Bacteroides fragilis [56]): 93%
Activity (Prevotella intermedia [57]): 6%
Activity (Fusobacterium nucleatum [58]): 96%
Activity (Clostridium septicum [59]): 85%
Activity [60]: 0%
